For one assay, the system named is T1, HvTHT8.
T1 construct: His-GST-tagged (pCold GST), E. coli BL21, TALON-purified; differs from HvTHT7 only at residue 166 (His/Arg)
Description: LC-MS/MS (MRM) of amide product. The assay is classed as biochemical, Hordeum vulgare. As to conditions: 100 mM Tris-HCl pH 8.0, 35 °C, read-out: HvTHT8 / K m. An excerpt:
LC-MS/MS (MRM) of amide product on HvTHT8

The subject of another assay is T2, HvTHT7.
T2 construct: His-GST-tagged (pCold GST), E. coli BL21, TALON-purified; HvTHT7 plasmid made by site-directed mutagenesis of HvTHT8; differs from HvTHT8 only at residue 166 (His/Arg)
Description: LC-MS/MS (MRM) of amide product. The class given is biochemical, Hordeum vulgare. As to conditions: 100 mM Tris-HCl pH 8.0, 35 °C, read-out: HvTHT7 / K m. From the text: LC-MS/MS (MRM) of amide product on HvTHT7

Setting [1] is: acyl acceptor, 200 µM cinnamoyl-CoA.

Where two headings read alike, the source gives them in different places.

Turning to `NCC(=O)c1c[nH]c2ccccc12` [8-Oxotryptamine], the Km in the assay on HvTHT8 (setting [1]) turned out to be 54.9 µM; in the assay with HvTHT7 (setting [1]), 53.1 µM.
`CC(C)(COP(=O)(O)OP(=O)(O)OC[C@H]1O[C@@H](n2cnc3c(N)ncnc32)[C@H](O)[C@@H]1OP(=O)(O)O)[C@@H](O)C(=O)NCCC(=O)NCCSC(=O)/C=C/c1ccccc1` [Cinnamoyl-CoA]: the Km with HvTHT8 (acyl donor, 1 mM tryptamine) is 62.1 µM; in the assay with HvTHT7 (acyl donor, 1 mM tryptamine) it was 64.2 µM.
In the case of `CC(C)(COP(=O)(O)OP(=O)(O)OC[C@H]1O[C@@H](n2cnc3c(N)ncnc32)[C@H](O)[C@@H]1OP(=O)(O)O)[C@@H](O)C(=O)NCCC(=O)NCCSC(=O)/C=C/c1ccc(O)cc1` [Coumaroyl-CoA], the Km came to 35.5 µM with HvTHT8 (acyl donor, 1 mM tryptamine) and 39.2 µM with HvTHT7 (acyl donor, 1 mM tryptamine).
Consider `COc1cc(/C=C/C(=O)SCCNC(=O)CCNC(=O)[C@H](O)C(C)(C)COP(=O)(O)OP(=O)(O)OC[C@H]2O[C@@H](n3cnc4c(N)ncnc43)[C@H](O)[C@@H]2OP(=O)(O)O)ccc1O` [Feruloyl-CoA], for which the Km in the assay on HvTHT8 (acyl donor, 1 mM tryptamine) was found to be 36.7 µM; in the assay on HvTHT7 (acyl donor, 1 mM tryptamine), 32.6 µM.
Regarding `NCc1c[nH]c2ccccc12` [IMA, (1H-indol-3-yl)methylamine], the Km with HvTHT8 (setting [1]) is 33.9 µM; in the assay on HvTHT7 (setting [1]), 54.2 µM.
For `NCCc1c[nH]c2ccc(O)cc12` [Serotonin], in that order: 347 µM and 385 µM.
For `NCCc1c[nH]c2ccccc12` [Tryptamine], in that order: 60.6 µM and 59.2 µM.

The values are drawn from publication PMC6888128, “Biosynthesis of Phenylamide Phytoalexins in Pathogen-Infected Barley” (International Journal of Molecular Sciences, 2019).
